Results reported in patent EP0106793A1, “7-Alpha-alkyl-17-alpha-pregn-4-ene-21,17-carbolactones and -21-carboxylic acid salts and procedures for manufacturing them and pharmaceutical preparations containing them” (SCHERING AKTIENGESELLSCHAFT, priority 1982, dated 1984).

Test system: aldosterone
Test: antialdosterone effect, experimental model by Hollmann
Type: in vivo
Conditions: relative to spironolactone = 1
Description: The antialdosterone effect was determined and measured in an experimental model by Hallmann (G. Hollmann et al, Tubular Effects and Renal Elimination of Spirono- lactones, Naunyn-Schmiedebergs Arch. Exp. Path. Pharmak. 247 (1964), p 419; P. Marx, Renal Effects of d-aldosterone and Its Antagonist Spironolactone, Diss. Med. Fak. FU Berlin, 1966 whose disclosure is incorporated by references herein).

## CC(=O)S[C@@H]1CC2=CC(=O)CC[C@]2(C)[C@H]2CC[C@@]3(C)[C@@H](CC[C@@]34CCC(=O)O4)[C@H]12 [spironolactone]
  relative values of the degree of antialdosterone effect: 1
